Measurements: the supplement of paper PMC5662764
± gives the standard deviation of the averaged measurements.

What was measured:
Assay in all cases: normalised growth rate inhibition (GR value) relative to DMSO control (GR (1 = untreated growth, 0 = cytostasis, <0 = cytotoxic)); higher = less growth inhibition
Conditions in all cases: 72 h
BT20 = test system: BT20
Method: (§1)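 Breast cancer cell lines (BT-20, Hs 578T, MCF 10A, MCF7, MDA-MB-231, SK-BR-3) were plated in 384-well plates and treated 24 h later with drugs at six concentrations (0.04-10 µM). Viable cells were counted by Hoechst/dead-cell-stain imaging at 0 and 72 h. Counts were normalised to DMSO controls on the same plate to give the relative cell count and the growth-rate inhibition (GR) value; technical plate triplicates were averaged for each biological replicate.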

HS578T = test system: HS578T
Method: as §1

MCF10A = test system: MCF10A
Method: as §1

MCF7 = test system: MCF7
Method: as §1

MDAMB231 = test system: MDAMB231
Method: as §1

SKBR3 = test system: SKBR3
Method: as §1

SMILES	normalised growth rate inhibition (BT20; 0.04 µM)	normalised growth rate inhibition (BT20; 0.12 µM)	normalised growth rate inhibition (BT20; 0.37 µM)	normalised growth rate inhibition (BT20; 1.11 µM)	normalised growth rate inhibition (BT20; 3.33 µM)	normalised growth rate inhibition (BT20; 10 µM)	normalised growth rate inhibition (HS578T; 0.04 µM)	normalised growth rate inhibition (HS578T; 0.12 µM)	normalised growth rate inhibition (HS578T; 0.37 µM)	normalised growth rate inhibition (HS578T; 1.11 µM)	normalised growth rate inhibition (HS578T; 3.33 µM)	normalised growth rate inhibition (HS578T; 10 µM)	normalised growth rate inhibition (MCF10A; 0.04 µM)	normalised growth rate inhibition (MCF10A; 0.12 µM)	normalised growth rate inhibition (MCF10A; 0.37 µM)	normalised growth rate inhibition (MCF10A; 1.11 µM)	normalised growth rate inhibition (MCF10A; 3.33 µM)	normalised growth rate inhibition (MCF10A; 10 µM)	normalised growth rate inhibition (MCF7; 0.04 µM)	normalised growth rate inhibition (MCF7; 0.12 µM)	normalised growth rate inhibition (MCF7; 0.37 µM)	normalised growth rate inhibition (MCF7; 1.11 µM)	normalised growth rate inhibition (MCF7; 3.33 µM)	normalised growth rate inhibition (MCF7; 10 µM)	normalised growth rate inhibition (MDAMB231; 0.04 µM)	normalised growth rate inhibition (MDAMB231; 0.12 µM)	normalised growth rate inhibition (MDAMB231; 0.37 µM)	normalised growth rate inhibition (MDAMB231; 1.11 µM)	normalised growth rate inhibition (MDAMB231; 3.33 µM)	normalised growth rate inhibition (MDAMB231; 10 µM)	normalised growth rate inhibition (SKBR3; 0.04 µM)	normalised growth rate inhibition (SKBR3; 0.12 µM)	normalised growth rate inhibition (SKBR3; 0.37 µM)	normalised growth rate inhibition (SKBR3; 1.11 µM)	normalised growth rate inhibition (SKBR3; 3.33 µM)	normalised growth rate inhibition (SKBR3; 10 µM)
Oc1cccc(-c2nc(N3CCOCC3)c3oc4ncccc4c3n2)c1 [PI-103]	0.949 ± 0.084	0.723 ± 0.26	0.357 ± 0.32	0.0983 ± 0.17	-0.0552 ± 0.017	-0.115 ± 0.034	0.676 ± 0.047	0.397 ± 0.075	0.249 ± 0.13	0.174 ± 0.16	0.148 ± 0.17	0.0951 ± 0.13	0.96 ± 0.066	0.76 ± 0.22	0.427 ± 0.24	0.196 ± 0.067	0.125 ± 0.032	0.0826 ± 0.033	0.71 ± 0.14	0.379 ± 0.16	0.0687 ± 0.081	-0.0473 ± 0.051	-0.0779 ± 0.063	-0.153 ± 0.1	0.772 ± 0.075	0.637 ± 0.1	0.42 ± 0.25	0.371 ± 0.12	0.291 ± 0.18	0.0948 ± 0.18	0.9 ± 0.045	0.579 ± 0.1	0.221 ± 0.052	-0.00817 ± 0.15	-0.0811 ± 0.2	-0.137 ± 0.17
O=C(NOCC1CC1)c1ccc(F)c(F)c1Nc1ccc(I)cc1Cl	1.05 ± 0.03	1.032 ± 0.009	1.01 ± 0.043	0.9868 ± 0.0023	0.95 ± 0.018	0.289 ± 0.18	0.783 ± 0.081	0.686 ± 0.097	0.605 ± 0.12	0.528 ± 0.12	0.476 ± 0.094	0.267 ± 0.067	0.661 ± 0.016	0.547 ± 0.058	0.454 ± 0.059	0.371 ± 0.079	0.279 ± 0.068	0.165 ± 0.07	0.915 ± 0.15	0.81 ± 0.13	0.718 ± 0.059	0.646 ± 0.074	0.574 ± 0.034	0.344 ± 0.037	0.992 ± 0.058	0.8538 ± 0.0075	0.77 ± 0.023	0.63 ± 0.057	0.513 ± 0.05	0.181 ± 0.087	1.08 ± 0.054	1.05 ± 0.048	1.04 ± 0.023	1.02 ± 0.031	0.972 ± 0.077	0.611 ± 0.061
N#CC[C@H](C1CCCC1)n1cc(-c2ncnc3[nH]ccc23)cn1 [ruxolitinib]	0.973 ± 0.066	0.942 ± 0.019	0.95 ± 0.046	0.973 ± 0.08	0.933 ± 0.087	0.707 ± 0.074	0.9891 ± 0.0054	0.985 ± 0.039	0.973 ± 0.023	0.9536 ± 0.0035	0.901 ± 0.021	0.693 ± 0.031	0.9818 ± 0.0081	0.9898 ± 0.007	0.978 ± 0.011	0.956 ± 0.019	0.948 ± 0.021	0.828 ± 0.039	0.967 ± 0.062	0.948 ± 0.047	0.963 ± 0.042	1.05 ± 0.038	1.05 ± 0.027	0.778 ± 0.075	0.938 ± 0.065	0.922 ± 0.052	0.933 ± 0.087	0.95 ± 0.069	0.95 ± 0.043	0.673 ± 0.26	0.882 ± 0.12	0.903 ± 0.098	0.922 ± 0.086	0.918 ± 0.057	0.958 ± 0.084	0.81 ± 0.18
CCCS(=O)(=O)Nc1ccc(F)c(C(=O)c2c[nH]c3ncc(Cl)cc23)c1F [PLX-4720]	1.01 ± 0.032	0.988 ± 0.027	0.959 ± 0.051	0.882 ± 0.16	0.685 ± 0.1	0.409 ± 0.05	1.03 ± 0.033	1.09 ± 0.044	1.12 ± 0.079	1.12 ± 0.11	1.04 ± 0.086	0.781 ± 0.092	0.998 ± 0.019	0.99 ± 0.039	0.982 ± 0.054	1 ± 0.068	1 ± 0.066	0.896 ± 0.056	1.04 ± 0.078	0.944 ± 0.028	1.02 ± 0.049	0.991 ± 0.02	0.851 ± 0.097	0.5 ± 0.16	0.989 ± 0.06	1.01 ± 0.054	1 ± 0.032	0.929 ± 0.041	0.822 ± 0.073	0.63 ± 0.21	0.994 ± 0.015	0.999 ± 0.026	1.04 ± 0.15	1.06 ± 0.06	0.61 ± 0.1	0.254 ± 0.26
CC[C@@H]1C(=O)N(C)c2cnc(Nc3ccc(C(=O)NC4CCN(C)CC4)cc3OC)nc2N1C1CCCC1 [BI-2536]	-0.177 ± 0.15	-0.203 ± 0.19	-0.198 ± 0.17	-0.163 ± 0.16	-0.143 ± 0.14	-0.137 ± 0.17	-0.128 ± 0.11	-0.125 ± 0.14	-0.0972 ± 0.11	-0.0687 ± 0.11	-0.0582 ± 0.1	-0.125 ± 0.16	-0.0473 ± 0.13	-0.0192 ± 0.14	0.00696 ± 0.13	1.1e-05 ± 0.11	-0.0132 ± 0.098	0.00366 ± 0.082	0.101 ± 0.044	0.0593 ± 0.017	0.0551 ± 0.044	0.0492 ± 0.066	0.0223 ± 0.047	-0.191 ± 0.038	0.0155 ± 0.14	0.00874 ± 0.1	0.00566 ± 0.14	0.0242 ± 0.14	0.0274 ± 0.12	-0.0537 ± 0.25	-0.136 ± 0.22	-0.151 ± 0.18	-0.109 ± 0.23	-0.15 ± 0.23	-0.158 ± 0.2	-0.208 ± 0.25
CC(=O)c1c(C)c2cnc(Nc3ccc(N4CCNCC4)cn3)nc2n(C2CCCC2)c1=O [palbociclib]	0.654 ± 0.069	0.53 ± 0.14	0.412 ± 0.13	0.295 ± 0.082	0.273 ± 0.066	0.196 ± 0.033	0.68 ± 0.03	0.569 ± 0.024	0.485 ± 0.044	0.411 ± 0.032	0.397 ± 0.019	0.327 ± 0.018	0.839 ± 0.037	0.743 ± 0.052	0.666 ± 0.048	0.581 ± 0.038	0.534 ± 0.019	0.408 ± 0.051	0.696 ± 0.09	0.552 ± 0.13	0.447 ± 0.15	0.356 ± 0.13	0.32 ± 0.055	0.294 ± 0.024	0.675 ± 0.092	0.579 ± 0.077	0.477 ± 0.075	0.407 ± 0.043	0.35 ± 0.027	0.278 ± 0.039	0.819 ± 0.12	0.683 ± 0.037	0.612 ± 0.05	0.595 ± 0.038	0.568 ± 0.049	0.517 ± 0.046
O=C(Nc1cccc(Nc2ncc(Br)c(NCCc3cnc[nH]3)n2)c1)N1CCCC1 [BX-912]	0.8964 ± 0.0089	0.943 ± 0.034	0.936 ± 0.034	0.939 ± 0.032	0.839 ± 0.12	0.355 ± 0.13	0.967 ± 0.021	0.906 ± 0.045	0.756 ± 0.16	0.375 ± 0.042	0.143 ± 0.076	-0.103 ± 0.14	0.95 ± 0.0022	0.92 ± 0.062	0.648 ± 0.3	0.206 ± 0.067	0.172 ± 0.068	0.0883 ± 0.057	0.816 ± 0.053	0.866 ± 0.058	0.731 ± 0.17	0.459 ± 0.1	0.293 ± 0.063	0.0193 ± 0.03	0.903 ± 0.0098	0.901 ± 0.083	0.694 ± 0.32	0.404 ± 0.23	0.194 ± 0.14	-0.0228 ± 0.27	0.724 ± 0.1	0.719 ± 0.089	0.175 ± 0.19	-0.0702 ± 0.08	-0.0412 ± 0.053	-0.0312 ± 0.089
